# Measured values: patent EP2927685A1, “Suitable hepatocytes for in-vitro hepatitis tests” (Medicyte GmbH, priority 2014, dated 2015)
# Like-named read-outs stand apart in the source and are kept apart here.
# What was measured:
# [1] = tested on: primary human hepatocyte transduced with HPV E6 and E7 genes
# [2] = tested on: CYP3A4/5, 2E1, 2B6 and 1A1; test: Cytochrome P450 inhibition in differentiated hepatocytes; format: in vitro ADME, human; settings: after 30 min of incubation, 200 µM naringenin
# CYP450 = settings: human, hepatocytes, 72 h, 200 µM
# [3] = tested on: differentiated hepatocytes; settings: human, 48 h
# [4] = tested on: differentiated hepatocytes; test: Intrahepatic cholestasis: bile secretion by CDFDA staining; format: cell-based, human; settings: 24 hours of exposure, compared to melatonin
# [5] = tested on: differentiated hepatocytes; test: Apoptosis quantification by TUNEL
# CYP1A1 = test: Cytochrome P450 induction in differentiated hepatocytes (CYP1A1); format: in vitro ADME, human; settings: 50 µM omeprazole, normalized to vehicle-only controls
compound,measurement,setting,value
N#CC(=C(/N)Sc1ccccc1N)/C(C#N)=C(\N)Sc1ccccc1N [U0126],epithelial phenotype of the cells,[1],stable E-Cadherin positive epithelial phenotype
O=C1C[C@@H](c2ccc(O)cc2)Oc2cc(O)cc(O)c21 [naringenin],"inhibition of CYP3A4/5, 2E1, 2B6 and 1A1",[2],drastically inhibited
same,increase in CYP450 activity compared with vehicle-treated cells,CYP450,5-7 fold
CC(=O)Oc1ccccc1C(=O)O [acetylsalicylic acid],increase in intracellular lipids compared to control,[3],33-47%
Cc1c(C)c2c(c(C)c1O)CCC(C)(COc1ccc(CC3SC(=O)NC3=O)cc1)O2 (stereo not drawn) [troglitazone],bile secretion (measure of intrahepatic cholestasis),[4],loss of bile secretion function
aflatoxin B1,Percent apoptosis (positive nuclei),[5],23%
CN(C)CCCN1c2ccccc2Sc2ccc(Cl)cc21 [chlorpromazine],bile secretion (measure of intrahepatic cholestasis),[4],loss of bile secretion function
COc1ccc2[nH]cc(CCNC(C)=O)c2c1 [melatonin],Percent apoptosis (positive nuclei),"[5]; differentiated hepatocytes exposed for 24 hours to TC20 values, TUNEL",4%
COc1ccc2[nH]c([S+]([O-])Cc3ncc(C)c(OC)c3C)nc2c1 (stereo not drawn) [omeprazole],CYP1A1 increased by stimulation,CYP1A1,10 folds
